In paper PMC8440923, “Peptides Targeting the Interaction Between Erb1 and Ytm1 Ribosome Assembly Factors” (Frontiers in Molecular Biosciences, 2021):
Residues, ends and D or L forms follow the SMILES beside them. No end group written: not given here. *: point of attachment. Biotin = O=C1N[C@H]2[C@H](CS[C@H]2CCCCC(=O)*)N1

Columns and labels:
Erb1/Ytm1 complex [1] = target: T1, Erb1/Ytm1 complex (Thermochaetoides thermophila, UniProt G0SCK6); assay: Biolayer interferometry peptide interference assay, immobilized Ytm1, Erb1 analyte preincubated with P4-P6; type: binding, Chaetomium thermophilum; conditions: BLI, 20 µM Erb1 preincubated with equimolar peptide, reference without peptide 1.201e-3
T1 construct: 6xHis; made in house; host or cells: Erb1: Escherichia coli (DE3) BL21 CodonPlus (RIPL); Ytm1: Sf9 insect cells (baculovirus)

Ytm1 [2] = target: T2, Ytm1 (Thermochaetoides thermophila, UniProt G0SFB5); assay: Biolayer interferometry peptide affinity assay, immobilized biotinylated peptide, Ytm1 analyte; parameters: species or system Chaetomium thermophilum; conditions: BLI, streptavidin biosensor, 50 µg/ml biotinylated peptide immobilized, read-out: ka (1/Ms) of Ytm1 binding to immobilized biotinylated peptide
T2 construct: 6xHis; made in house; host or cells: Sf9 insect cells (baculovirus)
T2 sequence (G0SFB5 1-495): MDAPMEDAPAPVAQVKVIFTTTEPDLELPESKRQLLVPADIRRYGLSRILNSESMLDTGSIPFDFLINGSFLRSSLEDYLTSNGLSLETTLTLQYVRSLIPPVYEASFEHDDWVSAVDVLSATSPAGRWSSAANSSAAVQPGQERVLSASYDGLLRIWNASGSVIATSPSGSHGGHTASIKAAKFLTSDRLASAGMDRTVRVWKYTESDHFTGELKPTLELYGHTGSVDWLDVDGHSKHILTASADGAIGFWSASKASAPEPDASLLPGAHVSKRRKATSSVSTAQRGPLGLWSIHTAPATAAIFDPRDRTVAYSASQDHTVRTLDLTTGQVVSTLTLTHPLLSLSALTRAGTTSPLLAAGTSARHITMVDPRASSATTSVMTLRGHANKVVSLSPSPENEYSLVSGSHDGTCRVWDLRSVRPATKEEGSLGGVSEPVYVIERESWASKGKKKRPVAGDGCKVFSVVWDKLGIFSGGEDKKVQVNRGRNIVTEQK
Protocol: (§1) Peptides were commercially obtained from Synpeptide Co., Ltd., Shanghai, China. All experiments have been made in triplicates and include control curves for bait and analyte only.
(§2) BLI was used to determine the affinity between Ytm1 and biotinylated peptides using streptavidin biosensors (FortéBio). The biosensors were hydrated 10 min in the same buffer used on the interference assay, with 0.05% (w/v) bovine serum albumin (BSA). 50 µg/ml of biotinylated peptide was immobilized at the streptavidin biosensor. Increasing concentrations of Ytm1 were used to calculate the KD values using the Blitz Pro 1.2 software using the implemented equations for association and dissociation:
Association phase: y=Rmax 1/1+kd/ka∗[Analyte](1−e^−(ka∗[Analyte]+kd)x) .
Dissociation phase: y=y0 e^−kd(x−x0). y0=Rmax 1/1+kd/ka∗[Analyte](1−e^−(ka∗[Analyte]+kd)x0).
According to P1, P3, and P6 results, a new N-terminal biotynilated peptide synthesis was ordered using the same sequences (Biot-P1, Biot-P3, and Biot-P6, Table 1). Biotynilated peptides Biot-P1 and Biot-P3 were immobilized to the streptavidin biosensor and Ytm1 binding was measured. Similarly, Biot-P6 was immobilized to the streptavidin biosensor followed by Erb1 binding. […] Inconsistent results were obtained in DSF using Erb1 and a proper Tm could not be obtained so thermal shift could not be evaluated for P6.

Erb1 = assay: Biolayer interferometry peptide affinity assay, immobilized biotinylated peptide, Erb1 analyte; type: binding, Chaetomium thermophilum; conditions: BLI, streptavidin biosensor, Erb1 as analyte
Protocol: as §1
as §2, with “dissociation: […]” for “dissociation:”
According to P1, P3, and P6 results, a new N-terminal biotynilated peptide synthesis was ordered using the same sequences (Biot-P1, Biot-P3, and Biot-P6, Table 1). Biotynilated peptides Biot-P1 and Biot-P3 were immobilized to the streptavidin biosensor and Ytm1 binding was measured. Similarly, Biot-P6 was immobilized to the streptavidin biosensor followed by Erb1 binding. […] To further confirm the interaction a differential scanning fluorimetry assay was performed. […] Inconsistent results were obtained in DSF using Erb1 and a proper Tm could not be obtained so thermal shift could not be evaluated for P6.

Ytm1 [3] = target: T2, Ytm1; assay: Differential scanning fluorimetry (thermofluor) of Ytm1 with peptide; type: binding, Chaetomium thermophilum; conditions: DSF, SYPRO Orange 1:1,000; 5 µM Ytm1, 1 mM peptide; 50 mM HEPES pH 7.5, 150 mM NaCl; 20-85°C at 1°C/min; triplicates
Protocol: Thermofluor assays ([Pantoliano et al., 2001]) were performed on a 7,500 Fast Real-Time PCR System (Applied Biosystems) measuring the gradual fluorescence generated by a 1:1,000 dilution of SYPRO Orange Protein Stain Gel (Supelco, Merck-Sigma) along with 1°C/min temperature increase from 20°C until 85°C.
The samples were mixed containing the protein Ytm1 at 5 µM in 50 mM HEPES pH 7.5, 150 mM NaCl and peptides P1-P3 at 1 mM concentration. Previously, lyophilized P2 and P3 were resuspended in the same Ytm1 buffer and P1 was solubilized in 10 mM Tris (hydroxymethyl)-methylamine (Tris-HCl), pH 8.8 for P1. Data of triplicated experiments were analyzed using GraphPad Prism 5.01 software.

Erb1/Ytm1 complex [4] = target: T3, Erb1/Ytm1 complex (Thermochaetoides thermophila, UniProt G0SFB5); assay: Biolayer interferometry peptide interference assay, immobilized Erb1, Ytm1 analyte preincubated with P1-P3; type: binding, Chaetomium thermophilum; conditions: BLI, 5 µM Ytm1 preincubated with equimolar peptide, reference without peptide 1.724e-3
T3 construct: 6xHis; made in house; host or cells: Ytm1: Sf9 insect cells (baculovirus); Erb1: Escherichia coli (DE3) BL21 CodonPlus (RIPL)
T3 sequence (G0SFB5 1-495): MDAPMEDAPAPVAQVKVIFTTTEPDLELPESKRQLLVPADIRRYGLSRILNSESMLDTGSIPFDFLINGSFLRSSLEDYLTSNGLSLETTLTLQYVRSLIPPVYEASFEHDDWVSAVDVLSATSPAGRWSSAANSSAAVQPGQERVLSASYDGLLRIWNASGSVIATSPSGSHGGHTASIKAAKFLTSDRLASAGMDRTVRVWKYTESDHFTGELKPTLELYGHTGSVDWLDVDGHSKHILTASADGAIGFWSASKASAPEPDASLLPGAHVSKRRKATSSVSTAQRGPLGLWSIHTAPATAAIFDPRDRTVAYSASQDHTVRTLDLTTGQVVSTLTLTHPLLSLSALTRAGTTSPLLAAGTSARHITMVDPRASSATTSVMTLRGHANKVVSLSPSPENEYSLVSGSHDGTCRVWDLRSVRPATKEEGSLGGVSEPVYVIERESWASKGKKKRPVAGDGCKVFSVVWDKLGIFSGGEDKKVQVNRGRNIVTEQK
Protocol: as §1
Potential interference peptide samples were evaluated by their ability to interfere the kinetics and affinity of the complex between Erb1 and Ytm1 as measured by Biolayer Interferometry (BLItz, Pall FortéBio Corp.) using Ni-NTA biosensors (FortéBio) and 50 mM HEPES, pH 7.5; 150 mM NaCl; 5% (v/v) glycerol; and 2 mM β-mercaptoethanol (BME) buffer. To set the reference KD, an 80 µg/ml solution of Erb1 was immobilized to the biosensor in order to obtain binding curves for increasing concentrations of Ytm1. According to this, an evaluation of Erb1-derived peptides (P1–P3) was performed using 5 µM Ytm1 previously incubated during 30 min at equimolar concentrations of each peptide. New KD values were determined. […]
Biolayer interferometry interference assays were used to evaluate the ability of each peptide to interfere in the in vitro formation of the Erb1/Ytm1 complex. […] Peptides were evaluated for their ability to decrease in the Erb1/Ytm1 complex formation by preincubating the analyte with each peptide derived from the immobilized partner. […] Erb1-derived peptides were evaluated by their ability to decrease Erb1/Ytm1 complex affinity. […]

[5] = target: T4, Ytm1 (Chaetomium thermophilum ribosome assembly factor) (Chaetomium thermophilum, UniProt G0SFB5 1-495); assay: BLI; biotinylated peptide (50 µg/ml) immobilised on streptavidin biosensor; Ytm1 (or Erb1 for Biot-P6) as analyte; interference-assay buffer with 0.05% BSA; conditions: both partners purified
T4 construct: Ytm1, Chaetomium thermophilum; YTM1 gene amplified from total cDNA and cloned in pOPIN-F; For MST, Ytm1 was labelled with the Red-NHS second-generation dye; source: Sf9 insect cells (baculovirus), purified (Histrap-HP Ni, Superdex 200 SEC)
T4 sequence: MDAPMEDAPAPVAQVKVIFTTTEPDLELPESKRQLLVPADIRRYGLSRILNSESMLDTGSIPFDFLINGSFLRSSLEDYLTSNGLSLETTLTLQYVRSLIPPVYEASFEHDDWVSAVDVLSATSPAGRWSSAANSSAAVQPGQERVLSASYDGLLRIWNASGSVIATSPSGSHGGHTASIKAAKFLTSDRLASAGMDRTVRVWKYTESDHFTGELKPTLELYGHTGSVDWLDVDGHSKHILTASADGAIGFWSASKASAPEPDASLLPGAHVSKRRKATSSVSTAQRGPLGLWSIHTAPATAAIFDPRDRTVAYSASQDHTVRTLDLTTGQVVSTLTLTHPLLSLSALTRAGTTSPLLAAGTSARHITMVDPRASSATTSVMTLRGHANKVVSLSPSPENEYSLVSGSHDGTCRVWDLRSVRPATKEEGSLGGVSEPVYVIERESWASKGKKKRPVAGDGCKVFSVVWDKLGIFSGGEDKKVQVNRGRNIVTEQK

[6] = target: T5, Ytm1 (Chaetomium thermophilum ribosome assembly factor) (Chaetomium thermophilum, UniProt G0SFB5 1-495); assay: BLI
T5 chain: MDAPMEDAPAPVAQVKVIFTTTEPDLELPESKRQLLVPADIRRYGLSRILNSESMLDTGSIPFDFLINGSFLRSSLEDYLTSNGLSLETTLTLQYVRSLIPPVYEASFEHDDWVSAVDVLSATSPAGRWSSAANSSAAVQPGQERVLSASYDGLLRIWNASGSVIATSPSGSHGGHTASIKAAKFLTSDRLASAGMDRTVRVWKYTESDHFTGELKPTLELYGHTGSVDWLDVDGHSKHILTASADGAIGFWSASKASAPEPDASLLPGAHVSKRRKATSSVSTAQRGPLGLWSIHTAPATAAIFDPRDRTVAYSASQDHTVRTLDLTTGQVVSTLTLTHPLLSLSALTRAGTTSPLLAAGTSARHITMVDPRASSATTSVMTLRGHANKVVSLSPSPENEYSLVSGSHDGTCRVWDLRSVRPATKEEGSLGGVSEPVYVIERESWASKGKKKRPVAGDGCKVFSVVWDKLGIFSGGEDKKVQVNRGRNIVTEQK

[7] = target: T4, Ytm1 (Chaetomium thermophilum ribosome …); assay: MST; 5 nM Ytm1 labelled with Red-NHS second-generation dye; 50 mM HEPES pH 7.5, 150 mM NaCl, 0.1% Pluronic F-127; peptide in sixteen serial dilutions (P1 1,230-0.0751 µM; P3 maximum 1,580 µM); Monolith NT.115; conditions: both partners purified

T1 sequence (G0SCK6 whole entry, one chain of several): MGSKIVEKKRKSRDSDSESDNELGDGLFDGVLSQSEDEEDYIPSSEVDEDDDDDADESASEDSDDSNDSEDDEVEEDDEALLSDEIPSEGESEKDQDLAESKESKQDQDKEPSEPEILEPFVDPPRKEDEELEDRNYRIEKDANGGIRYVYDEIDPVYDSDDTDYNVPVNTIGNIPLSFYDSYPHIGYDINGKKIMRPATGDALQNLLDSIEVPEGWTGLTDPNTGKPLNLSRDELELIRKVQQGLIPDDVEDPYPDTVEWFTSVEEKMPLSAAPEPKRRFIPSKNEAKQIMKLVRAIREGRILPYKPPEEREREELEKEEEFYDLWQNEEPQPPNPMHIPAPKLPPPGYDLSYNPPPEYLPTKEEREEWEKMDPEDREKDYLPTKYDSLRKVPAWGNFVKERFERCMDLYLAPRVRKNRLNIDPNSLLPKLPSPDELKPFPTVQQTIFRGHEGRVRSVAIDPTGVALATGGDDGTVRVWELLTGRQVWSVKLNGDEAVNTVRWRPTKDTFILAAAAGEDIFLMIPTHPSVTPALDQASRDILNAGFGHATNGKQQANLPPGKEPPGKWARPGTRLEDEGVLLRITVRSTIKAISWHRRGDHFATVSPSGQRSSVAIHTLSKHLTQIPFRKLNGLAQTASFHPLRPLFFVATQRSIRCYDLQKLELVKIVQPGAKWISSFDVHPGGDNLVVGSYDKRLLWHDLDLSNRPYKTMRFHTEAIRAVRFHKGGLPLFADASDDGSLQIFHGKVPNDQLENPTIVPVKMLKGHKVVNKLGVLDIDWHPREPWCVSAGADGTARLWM

HDDWVSA [Peptide P4, Ytm1-derived peptide HDDWVSA, residues 110–116]
kd (1/s) of Ytm1/Erb1 binding after preincubation of Erb1 with peptide (Erb1/Ytm1 complex [1]): 0.001585 s⁻¹

CC(C)C[C@H](NC(=O)[C@H](CCC(=O)O)NC(=O)[C@H](Cc1c[nH]c2ccccc12)NC(=O)[C@@H](NC(=O)CCCC[C@@H]1SC[C@@H]2NC(=O)N[C@@H]21)C(C)C)C(=O)N[C@@H](CC(C)C)C(=O)N[C@H](C(=O)NCC(=O)N[C@@H](CCCNC(=N)N)C(=O)N[C@@H](CCC(N)=O)C(=O)N[C@H](C(=O)N[C@@H](Cc1c[nH]c2ccccc12)C(=O)O)C(C)C)[C@@H](C)O [Biot-P1] (Biotin-VWELLTGRQVW-OH)
kon (Ytm1 [2]): 386 M⁻¹ s⁻¹

CC(C)[C@H](NC(=O)[C@H](CS)NC(=O)[C@H](Cc1c[nH]c2ccccc12)NC(=O)[C@@H]1CCCN1C(=O)[C@H](CCC(=O)O)NC(=O)[C@H](CCCNC(=N)N)NC(=O)[C@@H]1CCCN1C(=O)[C@H](Cc1c[nH]cn1)NC(=O)[C@H](Cc1c[nH]c2ccccc12)NC(=O)[C@H](CC(=O)O)NC(=O)CCCC[C@@H]1SC[C@@H]2NC(=O)N[C@@H]21)C(=O)O [Biot-P3] (Biotin-DWHPREPWCV-OH)
kon (Ytm1 [2]): 829 M⁻¹ s⁻¹

AGMDRTV [Peptide P5, Ytm1-derived peptide AGMDRTV, residues 194–200]
kd (1/s) of Ytm1/Erb1 binding after preincubation of Erb1 with peptide (Erb1/Ytm1 complex [1]): 0.001655 s⁻¹

Biotin-RGHANKV [Biot-P6]
Binding of Erb1 to immobilized biotinylated peptide (Erb1): could not detect binding
Binding of Erb1 to immobilized biotinylated peptide (Erb1; listed as biot-P6): did not show binding

QQTIFRGH [Peptide P2, Erb1-derived peptide QQTIFRGH, residues 445–452]
Thermal shift (Tm) of Ytm1 in the presence of peptide (Ytm1 [3]): no significant thermal shift
kd (1/s) of Erb1/Ytm1 binding after preincubation of Ytm1 with peptide (Erb1/Ytm1 complex [4]): 0.01393 s⁻¹

B1: Biot-P3 (N-terminally biotinylated Erb1 780-789) (peptide)
peptide: Biotin-DWHPREPWCV
notes: Erb1, Chaetomium thermophilum, residues 780-789; source: synthetic peptide, bought: Synpeptide Co., Ltd., Shanghai
binding result [5]: binds
Kd [6]: 6.29 µM

B2: Peptide P1 (Erb1 479-489) (peptide)
peptide: VWELLTGRQVW
notes: Erb1, Chaetomium thermophilum, residues 479-489; source: synthetic peptide, bought: Synpeptide Co., Ltd., Shanghai
Kd [7]: 8.2 µM

B3: Biot-P1 (N-terminally biotinylated Erb1 479-489) (peptide)
peptide: Biotin-VWELLTGRQVW
notes: as for B2
binding result [5]: binds
Kd [6]: 33.4 µM
